The text below walks through data of patent publication US10745352B2, “Dual function molecules for histone deacetylase inhibition and ataxia telangiectasia mutated activation and methods of use thereof” (Shuttle Pharmaceuticals, Inc., priority 2015, dated 2020).

Test [1] relates to pan-HDACs. The experiment in a line: Pan-HDAC assay (Fluor-de-Lys fluorometric kit, HeLa Nuclear Extract). It is filed as biochemical. The note with it: values are average EC50, read-out: EC50 against pan-HDACs. As to the method: Certain compounds of the invention were tested in a pan-HDAC assay to determine the ability of such compounds to inhibit HDAC protein. Specifically, the compounds tested included: N-(6-(hydroxyamino)-6-oxohexyl)-3-methyl-1H-indole-2-carboxamide (SP-1-161) (FIG. 8A); N^1-hydroxy-N^6-(2-(2-methyl-1H-indol-3-yl)ethyl)octanediamide (SP-1-163) (FIG. 8A); (S)—N-(6-(hydroxyamino)-6-oxohexyl)-1-tosylindoline-2-carboxamide (SP-1-169) (FIG. 8B); and (S)-1-((5-(dimethylamino)naphthalene-1-yl)sulfonyl)-N-(6-(hydroxyamino)-6-oxoheyl)indoline-carboxamide (SP-1-171) (FIG. 8B).
The Pan HDAC assay was performed as follows:
Materials: Enzo Fluor-de-Lys HDAC fluorometric activity assay kit; 360 nm excitation 460 nm emission Plate Reader; Disposable pipettes; Pipet-aid; Pipette tips; Micro-pipetter; DMSO; Sterile micro-tubes and conical tubes; and Micro-centrifuge.
Test compounds and control preparation: All test compounds' stock solutions were made in 100% DMSO. Test compound dilutions were made in HDAC Assay buffer with a final concentration of DMSO less than or equal to 1%. Vehicle control was HDAC Assay buffer with 1% DMSO.
The reagents for the assay were prepared as follows:
1. All kit components were defrosted and these, and all dilutions described below, were kept on ice until use. All undiluted kit components are stable for several hours on ice.
2. A sufficient amount of HeLa Nuclear Extract (BML-KI140) or other HDAC source diluted in Assay Buffer (BML-KI143) was prepared to provide for the assays that were performed (# of wells×15 μl). A 30-fold dilution of the HeLa Extract means that 15 μl contains 0.5 μl of the undiluted Extract, an appropriate amount to use per well.
3. Dilution(s) of Trichostatin A and/or Test Inhibitors were prepared in Assay Buffer (BML-KI143). Since 10 μl were used per well, and since the final volume of the HDAC reaction was 50 μl, these inhibitor dilutions were 5× their final concentration.
4. Dilution(s) of the Fluor de Lys® Substrate (BML-KI104; 50 mM) were prepared in Assay Buffer (BML-KI143) that were 2× the desired final concentration(s). For inhibitor screening, substrate concentrations at or below the Km are recommended. Twenty-five μL were used per well. Initial dilutions of 25-fold or greater in Assay Buffer (2.0 mM or less) yielded stable solutions (see NOTE on freezing and thawing below). Rapid mixing and dilution into room temperature buffer helped to prevent precipitation at high substrate concentration. NOTE: Freezing/thawing of Fluor de Lys® Substrate solutions in Assay Buffer may cause precipitation of the Substrate. Dilute only amount necessary for one day's experiment.
5. Shortly before use (<30 min.), sufficient Fluor de Lys® Developer was prepared for the assays to be performed (50 μl per well). […]

The test system of test [2] is HPV+ CasKi cells vs normal epithelial cells (RWPE1 cells). The experiment in a line: MTT cytotoxicity assay, normal epithelial cells versus HPV+ cervical cancer cells. It is filed as cell-based, human. As to the method: SP-1-161 was tested in a MTT cytotoxicity assay against normal epithelial cells and human papilloma virus positive (HPV+) cancerous (CasKi) cervical cells. […] This supports the role for the compounds of the invention (e.g., SP-1-161) as treatments of HPV+ cancers and tumors.

The test system of test [3] is breast cancer cells (MCF7 cells). The experiment in a line: Clonogenic cytotoxicity assay, breast cancer cells. The test is classed as cell-based. The note with it: Homo sapiens, cell line not named in the sentence (FIG. 9: MCF7 and 184A1). Here is the method: (§1) Certain compounds of the invention were tested in both an MTT cytotoxicity assay and clonogenic cytotoxicity assay against breast cancer cells (MCF7 cells) and normal breast tissue cells (184A1 cells) to determine the cytotoxic effect of such cells as a function of concentration.
(§2) Specifically, the compounds tested included: N-(6-(hydroxyamino)-6-oxohexyl)-3-methyl-1H-indole-2-carboxamide (SP-1-161); -hydroxy-N^6-(2-(2-methyl-1H-indol-3-yl)ethyl)octanediamide (SP-1-163); (S)—N-(6-(hydroxyamino)-6-oxohexyl)-1-tosylindoline-2-carboxamide (SP-1-169); and (S)-1-((5-(dimethylamino)naphthalene-1-yl)sulfonyl)-N-(6-(hydroxyamino)-6-oxoheyl)indoline-carboxamide (SP-1-171).

Test [4] deals with normal prostate epithelial (RWPE1) cells vs prostate cancer (PC3) cells. The experiment in a line: MTT cytotoxicity assay, normal prostate epithelial cells versus prostate cancer cells. The test is classed as cell-based. Here is the method:
Certain compounds of the invention were tested in an MTT cytotoxicity assay against a breast cancer cell line (MCF7), prostate cancer cell line (PC3), cervical cancer cell line (CasKi), and head and neck cancer cell line (SQ20B). In the breast and prostate cancer MTT assays, certain compounds of the invention were also tested against normal breast (MCF10A) and prostate (RWPE1) epithelial tissues.
Specifically, the compounds tested included SP-1-161, SP-1-229, and SP-1-303. Suberoylanilide hydroxamic acid (SAHA), a known HDAC inhibitor, was also tested in the assay as control.
(In general: Formazan colour is commonly taken as a measure of viable cells.)

Test [5] concerns breast cancer cells (MCF7 cells). The test can be described thus: MTT cytotoxicity assay, breast cancer cells. The test is classed as cell-based. The note with it: Homo sapiens, cell line not named in the sentence (FIG. 9: MCF7 and 184A1). As to the method: as §1, §2

Usually EC50 stands for the concentration at which the effect is half-maximal. As a reminder, the IC50 is the concentration at which inhibition is half-maximal. For the compound `Cc1c(C(=O)NCCCCCC(=O)NO)[nH]c2ccccc12` [SP-1-161, N-(6-(hydroxyamino)-6-oxohexyl)-3-methyl-1H-indole-2-carboxamide], the EC50 in test [1] came out at 29.7 nM. Further, the “IC50 for HPV+ CasKi cells, times lower than that for normal epithelial cells (RWPE1 cells)” value in test [2] stood at 29 times. The IC50 in test [3] was 276 nM; in test [5], 416 nM. Moreover, the “fold less toxic in normal prostate epithelial (RWPE1) cells than in prostate cancer (PC3) cells” value in test [4] amounted to 15 fold.
